For this test, the target named is PrP^Sc (Mus musculus, UniProt P04925). Type of test: binding.
The mark [1] stands for this setting: affinity for PrPSc pulldown compared to peptide LH3 (CDR3H).
[2] abbreviates: pull-down, compared to peptide LH3.
Setting [3] is: pull-down, compared to peptide LH3 (CDR3H).

Read-outs that look alike come from different tables or passages of the source.

Chain of PrP^Sc (P04925 23-230 limits assumed): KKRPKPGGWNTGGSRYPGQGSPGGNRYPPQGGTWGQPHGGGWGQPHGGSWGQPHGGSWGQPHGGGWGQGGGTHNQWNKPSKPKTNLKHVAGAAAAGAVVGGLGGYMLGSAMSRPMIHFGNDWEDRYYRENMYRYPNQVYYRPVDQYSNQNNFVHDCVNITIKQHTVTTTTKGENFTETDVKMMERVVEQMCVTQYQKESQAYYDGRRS

Consider H-YFCARWNWERDAMDYWG-OH [CDR3H], for which the Affinity is on record as 0 and the Specificity entry is “PrP^Sc”.
Take YFAARWNWERDAMDYWG [LH3A3]: the Specificity result is “PrP^Sc”.
Turning to YFCAAWNWERDAMDYWG [LH3A5], the Specificity entry is “PrP^Sc”.
As to YFCADWNWERDAMDYWG [LH3D5], the Specificity result is given as “PrP^Sc” and the “change of affinity for PrP^Sc” value was “slightly decreases affinity for PrP^Sc”.
For YFCARANWERDAMDYWG [LH3A6], the Specificity result is given as “PrP^Sc”.
For the substance YFCARWAWERDAMDYWG [LH3A7], the Affinity result under setting [1] is “(+)”. Also, under setting [2], the “change of affinity for PrP^Sc” value is listed as “slightly increase affinity for PrP^Sc”. For the same substance, under setting [3], the Specificity entry was “PrP^Sc”.
Take YFCARWNAERDAMDYWG [LH3A8]: the Specificity result is “PrP^Sc”.
On the same count and under the same terms, the same measure for YFCARWNWARDAMDYWG [LH3A9]: “PrP^Sc”.
As to YFCARWNWEADAMDYWG [LH3A10], the “Specificity” value reads like this: under setting [2], “binds to PrP^C”; under setting [3], “PrP^C”.
For the substance YFCARWNWEDDAMDYWG [LH3D10], the Affinity entry is “(+)”, the Specificity result is on record as “PrP^Sc” and the “change of affinity for PrP^Sc” value is reported as “slightly increase affinity for PrP^Sc”.
As for YFCARWNWERAAMDYWG [LH3A11], the Specificity entry is “PrP^Sc”.
For YFCARWNWERDAADYWG [LH3A13], the Affinity result under setting [1] is “+”. Also, the “change of affinity for PrP^Sc” value under setting [2] was “increase affinity for PrP^Sc”. Besides, the Specificity result under setting [3] is given as “PrP^Sc”.
In the same order, the values of YFCARWNWERDAMAYWG [LH3A14] are “(+)”, “slightly increase affinity for PrP^Sc” and “PrP^Sc”.
Regarding YFCARWNWERDAMDAWG [LH3A15], the Specificity result is recorded as “PrP^Sc”.
The same measure, in the same setting: next, YFCARWNWERDAMRYWG [LH3R14]: “PrP^Sc”.
For YFCARWNWERRAMDYWG [LH3R11], under setting [1], the Affinity result is “+”. Also, the “change of affinity for PrP^Sc” value under setting [2] is recorded as “increase affinity for PrP^Sc”. Moreover, under setting [3], the Specificity entry is given as “PrP^Sc”.
As to YFCARWNWRRDAMDYWG [LH3R9], the Affinity entry under setting [1] is “(+)”. Moreover, under setting [2], the “change of affinity for PrP^Sc” value is recorded as “slightly increase affinity for PrP^Sc”. For the same substance, under setting [3], the Specificity result is “PrP^Sc”.

(Values after US8852587B2 (priority 2008, dated 2014).)
